For orientation: IC50 means the point on the concentration scale where inhibition reaches its midpoint. Read a low IC50 as greater potency in that assay.

The experiment concerns the target T1, GlyT1 transporter (Homo sapiens, UniProt P48067).
T1 construct: endogenously expressing the GlyT1 transporter; host or cells: SK-N-MC human neuroblastoma cells
T1 sequence (P48067 1-706): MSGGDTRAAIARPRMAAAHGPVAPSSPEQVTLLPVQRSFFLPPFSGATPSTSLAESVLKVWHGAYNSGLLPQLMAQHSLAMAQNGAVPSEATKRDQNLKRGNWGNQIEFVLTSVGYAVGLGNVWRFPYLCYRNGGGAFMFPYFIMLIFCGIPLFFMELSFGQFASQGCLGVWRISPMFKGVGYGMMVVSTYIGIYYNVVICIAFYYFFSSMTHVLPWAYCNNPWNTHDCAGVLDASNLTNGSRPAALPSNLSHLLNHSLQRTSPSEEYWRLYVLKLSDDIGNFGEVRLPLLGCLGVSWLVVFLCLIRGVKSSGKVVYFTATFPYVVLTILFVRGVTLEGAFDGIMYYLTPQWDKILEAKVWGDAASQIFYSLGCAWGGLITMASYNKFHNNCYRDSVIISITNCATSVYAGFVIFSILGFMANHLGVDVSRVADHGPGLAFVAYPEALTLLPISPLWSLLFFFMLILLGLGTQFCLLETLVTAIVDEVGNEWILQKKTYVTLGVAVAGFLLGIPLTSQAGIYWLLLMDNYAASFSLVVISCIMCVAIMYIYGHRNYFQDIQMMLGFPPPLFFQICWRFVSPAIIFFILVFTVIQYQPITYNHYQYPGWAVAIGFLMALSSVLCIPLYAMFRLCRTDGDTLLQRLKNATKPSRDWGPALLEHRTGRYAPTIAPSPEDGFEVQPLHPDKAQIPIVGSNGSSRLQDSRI
The experiment is described as follows: GlyT1 assay: 3H-glycine uptake into SK-N-MC cells (Cytostar-T format). The class given is cell-based. The conditions noted are these: glycine uptake in human SK-N-MC cells endogenously expressing GlyT1; 500 nM glycine, 1% DMSO, signal recorded over 60 min. The method in brief:
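Uptake slopes, measured over 60 min from the linear kinetic range, give IC50 from 8 compound concentrations, with 10 μM RG-1678 setting background. Substrate is 500 nM glycine (250 nM ³H, 250 nM unlabelled) in HBSS/5 mM alanine, 1% DMSO, after roughly 5-10 min compound preincubation. Cells: confluent SK-N-MC endogenously expressing human GlyT1.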
`C[C@H](Oc1ccc(S(C)(=O)=O)cc1C(=O)N1CC2CC2(c2noc(C3(C(F)(F)F)CC3)n2)C1)C(F)(F)F` (mixture of isomers) [Example 65, [5-Methanesulfonyl-2-(2,2,2-trifluoro-1-methyl-ethoxy)-phenyl]-{1-[5-(1-trifluoromethyl-cyclopropyl)-[1,2,4]oxadiazol-3-yl]-3-aza-bicyclo[3.1.0]hex-3-yl}-methanone] came in with an IC50 of 9 nM. The compound `C[C@H](Oc1ccc(C#N)cc1C(=O)N1CC2CC2(c2noc(C(F)(F)F)n2)C1)C(F)(F)F` (single isomer, unassigned) [Example 90, 4-(2,2,2-Trifluoro-1-methyl-ethoxy)-3-[1-(5-trifluoromethyl-[1,2,4]oxadiazol-3-yl)-3-aza-bicyclo[3.1.0]hexane-3-carbonyl]-benzonitrile] registered an IC50 of 2250 nM. The compound `CC(C)Oc1ccc(S(C)(=O)=O)cc1C(=O)N1CC2CC2(c2noc(C(F)(F)F)n2)C1` (racemic) [Example 96, (2-Isopropoxy-5-methanesulfonyl-phenyl)-[1-(5-trifluoromethyl-[1,2,4]oxadiazol-3-yl)-3-aza-bicyclo[3.1.0]hex-3-yl]-methanone] returned an IC50 of 27 nM.

Take `C[C@@H](Oc1ccc(S(C)(=O)=O)cc1C(=O)N1CC2CC2(c2nc(C(F)(F)F)no2)C1)C(F)(F)F` (single isomer, unassigned) [Example 87, [5-Methanesulfonyl-2-(2,2,2-trifluoro-1-methyl-ethoxy)-phenyl]-[1-(3-trifluoromethyl-[1,2,4]oxadiazol-5-yl)-3-aza-bicyclo[3.1.0]hex-3-yl]-methanone]: the IC50 turned out to be 2360 nM. `CS(=O)(=O)c1ccc(-n2ccc(C(F)(F)F)n2)c(C(=O)N2CC3CC3(c3noc(C(F)(F)F)n3)C2)c1` (racemic) [Example 141, [5-Methanesulfonyl-2-(3-trifluoromethyl-pyrazol-1-yl)-phenyl]-[1-(5-trifluoromethyl-[1,2,4]oxadiazol-3-yl)-3-aza-bicyclo[3.1.0]hex-3-yl]-methanone] had an IC50 of 764 nM. Compared with the last compound, the IC50 is about 3.1-fold lower. Compound `CC1(C)Cc2cc(S(C)(=O)=O)cc(C(=O)N3CC4CC4(c4noc(C(F)(F)F)n4)C3)c2O1` (racemic) [Example 99, (5-Methanesulfonyl-2,2-dimethyl-2,3-dihydro-benzofuran-7-yl)-[1-(5-trifluoromethyl-[1,2,4]oxadiazol-3-yl)-3-aza-bicyclo[3.1.0]-3-yl]-methanone] returned an IC50 of 291 nM.

Turning to `C[C@H](Oc1ccc(-c2ncco2)cc1C(=O)N1CC2CC2(c2noc(C(F)(F)F)n2)C1)C(F)(F)F` (mixture of isomers) [Example 100, [5-Oxazol-2-yl-2-(2,2,2-trifluoro-1-methyl-ethoxy)-phenyl]-[1-(5-trifluoromethyl-[1,2,4]oxadiazol-3-yl)-3-aza-bicyclo[3.1.0]hex-3-yl]-methanone], the half-maximal inhibitory concentration (IC50) is 916 nM. In the case of `C[C@H](Oc1ccc(S(C)(=O)=O)cc1C(=O)N1CC2CC2(c2noc(C(C)(C)C(F)(F)F)n2)C1)C(F)(F)F` (mixture of isomers) [Example 12, [5-Methanesulfonyl-2-(2,2,2-trifluoro-1-methyl-ethoxy)-phenyl]-{1-[5-(2,2,2-trifluoro-1,1-dimethyl-ethyl)-[1,2,4]oxadiazol-3-yl]-3-aza-bicyclo[3.1.0]hex-3-yl}-methanone] it was 18 nM; in that of `C[C@H](Oc1ccc(S(C)(=O)=O)cc1C(=O)N1CC2CC2(c2nnc(C3(C(F)(F)F)CC3)o2)C1)C(F)(F)F` (mixture of isomers) [Example 151, [5-Methanesulfonyl-2-(2,2,2-trifluoro-1-methyl-ethoxy)-phenyl]-{1-[5-(1-trifluoromethyl-cyclopropyl)-[1,3,4]oxadiazol-2-yl]-3-aza-bicyclo[3.1.0]hex-3-yl}-methanone], 10 nM; in that of `CS(=O)(=O)c1ccc(O[C@@H]2CCOC2)c(C(=O)N2CC3CC3(c3noc(C(F)(F)F)n3)C2)c1` (single isomer, unassigned) [Example 139, [5-Methanesulfonyl-2-(tetrahydro-furan-3-yloxy)-phenyl]-[1-(5-trifluoromethyl-[1,2,4]oxadiazol-3-yl)-3-aza-bicyclo[3.1.0]hex-3-yl]-methanone], 253 nM. Turning to `Cc1nc(C23CC2CN(C(=O)c2cc(S(C)(=O)=O)ccc2O[C@@H](C)C(F)(F)F)C3)no1` (single isomer, unassigned) [Example 8, [5-Methanesulfonyl-2-(2,2,2-trifluoro-1-methyl-ethoxy)-phenyl]-[1-(5-methyl-[1,2,4]oxadiazol-3-yl)-3-aza-bicyclo[3.1.0]hex-3-yl]-methanone], the IC50 came out at 474 nM. Take `C[C@H](Oc1ccc(S(C)(=O)=O)cc1C(=O)N1CC2CC2(c2noc(C3CC(F)(F)C3)n2)C1)C(F)(F)F` (single isomer, unassigned) [Example 60]: the IC50 worked out at 372 nM.

In the case of `C[C@H](Oc1ccc(S(C)(=O)=O)cc1C(=O)N1CC2CC2(c2noc(C3CC3)n2)C1)C(F)(F)F` (single isomer, unassigned) [Example 10, [1-(5-Cyclopropyl-[1,2,4]oxadiazol-3-yl)-3-aza-bicyclo[3.1.0]hex-3-yl]-[5-methanesulfonyl-2-(2,2,2-trifluoro-1-methyl-ethoxy)-phenyl]-methanone], the midpoint of inhibition, the IC50, lay at 42 nM. This IC50 lies about 8.9-fold lower than the previous one. `COC1(c2nc(C34CC3CN(C(=O)c3cc(S(C)(=O)=O)ccc3O[C@@H](C)C(F)(F)F)C4)no2)CC1` (single isomer, unassigned) [Example 117, [5-Methanesulfonyl-2-(2,2,2-trifluoro-1-methyl-ethoxy)-phenyl]-{1-[5-(1-methoxy-cyclopropyl)-[1,2,4]oxadiazol-3-yl]-3-aza-bicyclo[3.1.0]hex-3-yl}-methanone] gave an IC50 of 6 nM.

`Cc1nc(C23CC2CN(C(=O)c2cc(S(C)(=O)=O)ccc2O[C@H](C)C(F)(F)F)C3)no1` (mixture of isomers) [Example 101, [5-Methanesulfonyl-2-(2,2,2-trifluoro-1-methyl-ethoxy)-phenyl]-[1-(5-methyl-[1,2,4]oxadiazol-3-yl)-3-aza-bicyclo[3.1.0]hex-3-yl]-methanone] yielded a half-inhibitory concentration (IC50) of 15 nM.

On to `Cc1cnc(C23CC2CN(C(=O)c2cc(S(C)(=O)=O)ccc2O[C@@H](C)C(F)(F)F)C3)o1` (single isomer, unassigned) [Example 22, [5-Methanesulfonyl-2-(2,2,2-trifluoro-1-methyl-ethoxy)-phenyl]-[1-(5-methyl-oxazol-2-yl)-3-aza-bicyclo[3.1.0]hex-3-yl]-methanone], for which the IC50 came out at 5 nM. This IC50 is about 3-fold lower than that of the compound before.

For `Cc1cnc(C23CC2CN(C(=O)c2cc(S(C)(=O)=O)ccc2O[C@@H](C)C(F)(F)F)C3)o1` (single isomer, unassigned) [Example 23, [5-Methanesulfonyl-2-(2,2,2-trifluoro-1-methyl-ethoxy)-phenyl]-[1-(5-methyl-oxazol-2-yl)-3-aza-bicyclo[3.1.0]hex-3-yl]-methanone], the midpoint of inhibition, the IC50, lay at 181 nM.

`C[C@H](Oc1ccc(S(C)(=O)=O)cc1C(=O)N1CC2CC2(c2nccc(C(F)(F)F)n2)C1)C(F)(F)F` (single isomer, unassigned) [Example 16, [5-Methanesulfonyl-2-(2,2,2-trifluoro-1-methyl-ethoxy)-phenyl]-[1-(4-trifluoromethyl-pyrimidin-2-yl)-3-aza-bicyclo[3.1.0]hex-3-yl]-methanone] displayed an IC50 of 10 nM.

In turn, `C[C@@H](Oc1ccc(S(C)(=O)=O)cc1C(=O)N1CC2CC2(c2nnc(C3CC3)o2)C1)C(F)(F)F` (mixture of isomers) [Example 146, [1-(5-Cyclopropyl-[1,3,4]oxadiazol-2-yl)-3-aza-bicyclo[3.1.0]hex-3-yl]-[5-methanesulfonyl-2-(2,2,2-trifluoro-1-methyl-ethoxy)-phenyl]-methanone] gave an IC50 of 9 nM. The compound `CC(Oc1ccc(C#N)cc1C(=O)N1CC2CC2(c2noc(C(F)(F)F)n2)C1)C(F)(F)F` (stereo not shown) [Example 39, 4-(2,2,2-Trifluoro-1-methyl-ethoxy)-3-[1-(5-trifluoromethyl-[1,2,4]oxadiazol-3-yl)-3-aza-bicyclo[3.1.0]hexane-3-carbonyl]-benzonitrile] yielded an IC50 of 143 nM. In the case of `CCS(=O)(=O)c1ccc(O[C@H](C)C(F)(F)F)c(C(=O)N2CC3CC3(c3cc(C(F)(F)F)on3)C2)c1` (single isomer, unassigned) [Example 107, [5-Ethanesulfonyl-2-(2,2,2-trifluoro-1-methyl-ethoxy)-phenyl]-[1-(5-trifluoromethyl-isoxazol-3-yl)-3-aza-bicyclo[3.1.0]hex-3-yl]-methanone] it was 5 nM. Turning to `C[C@@H](Oc1ccc(S(C)(=O)=O)cc1C(=O)N1CC2CC2(c2csc(C(F)(F)F)n2)C1)C(F)(F)F` (single isomer, unassigned) [Example 30, [5-Methanesulfonyl-2-(2,2,2-trifluoro-1-methyl-ethoxy)-phenyl]-[1-(2-trifluoromethyl-thiazol-4-yl)-3-aza-bicyclo[3.1.0]hex-3-yl]-methanone], the IC50 came to 5 nM.

The values are drawn from patent publication US9012489B2, “Phenyl-3-aza-bicyclo[3.1.0]hex-3-yl-methanones and the use thereof as medicament” (Boehringer Ingelheim International GmbH, priority 2011, dated 2015).
